Results on two molecules are retold here after patent US5214174A, “Platinum complex and anti-tumor agent comprising said complex as active ingredient” (Tsumura & Co., priority 1989, dated 1993).

In data set [1] the test system is Mouse leukemia L1210 cells. Put plainly: Anti-tumor effect (life prolongation) in mice transplanted with L1210 cells. It is filed as in vivo, mouse (female BDF1). Particulars: abdominal cavity; for ILS30 (dose giving a 30% life-prolonging effect over the control group) / ILSmax (dose giving a highest life-prolonging effect) / TR (cure ratio; ILSmax/ILS30) / T/C (life prolongation ratio) / ratio of the number of surviving mice to the number of tested mice / Average Survival Day Number: once a day for 3 days; for ratio of the number of surviving mice to the number of tested mice: 30th day; for Average Survival Day Number: 30 days. The method, then:
Mouse leukemia L1210 cells (1×10^5) were transplanted into the abdominal cavity of a 6-weeks-old female BDF1 mouse. Then, continuously for 3 days from the next day, a compound of a compound obtained in an example described below or CDDP was administered to the abdominal cavity once a day. In the control group, physiological saline solution alone was similarly administered.
The anti-tumor effect was evaluated based on the life prolongation ratio (T/C value) determined from the average survival day numbers of the group of the compound obtained in the example and the control group after 30 days from the transplantation of L1210. On the 30th day from the transplantation, the experiment was concluded. In the case of mice surviving for more than 30 days, the survival day number was regarded as 30. [formula] The average survival day number at each dose, the T/C value (%) and the ratio of the number of surviving mice upon termination of the experiment to the number of tested mice are shown in Table 2. The ILS30 value (the dose giving a 30% life-prolonging effect over the control group), the ILSmax value (the dose giving a highest life-prolonging effect), the TR value (cure ratio; ILSmax /ILS30) and the CR value (the ratio of the number of mice completely cured at the ILSmax value and the number of mice showing no propagation of a tumor after 30 days from the transplantation to the number of tested mice) are shown in Table 3.
Note, 1 indicates the ratio of the number of surviving mice to the number of tested mice.

Another data set can be described thus: Acute toxicity test. Format: in vivo, mouse (male, ICR family). The note with it: administration into the abdominal cavity, male ICR mice.
The test system of data set [2] is MCF7 human mammary cancer cells. The experiment in a line: Inhibition of propagation of cancer cells, MTT method, 48 hours. Format: cell-based. The note with it: 37° C. The procedure: (§1) L1210 mouse leukemia cells, P388 mouse leukemia cells, Hela human uterine neck cancer cells, T24 human bladder cancer cells or MCF7 human mammary cancer cells were suspended in Eagle medium (Hela and T24) containing 10% bovine fetal serum, PRMI1640 medium (L1210 and MCF7) or PRM11740 medium (P388) mixed with 5×10^-5 M mercaptoethanol, and the cells were seeded on a 96-well plate at an inoculum size of 3×10^3 cells per hole. A compound obtained in an example described below or cysplatin (CDDP) was diluted with physiological saline solution and added to the medium at various concentrations. Culturing was conducted at 37° C. for 48 hours in a carbon dioxide incubator, and the propagation of cells was determined by the MTT [3-(4,5-dimethylthiazol-2-yl-)-2,5-diphenyl tetrazolium bromide] method (J. Immunol. Method, 65, 55, 1983). The absorbance A after 48 hours of culturing at each concentration, the absorbance B after 48 hours of culturing in the control, and the absorbance C before addition of the compound obtained in the example were determined, and the propagation reaction rate D of each concentration was calculated from the following formula: [formula] The concentration IC50, unit: μg/ml) of the compound obtained in the example giving the value corresponding to 50% of the value of the control was determined from the curve showing the relationship between the concentration of the compound obtained in the example and the propagation reaction rate.
For orientation: Tetrazolium dyes change colour on reduction, which living cells bring about.

Data set [3] deals with Hela human uterine neck cancer cells. The description is as above. The note with it: 37° C. It is filed as cell-based. The method, then: as §1
Data set [4] has as its system T24 human bladder cancer cells. The description is as above. Format: cell-based. The note with it: 37° C. The procedure: as §1
Data set [5] concerns L1210 mouse leukemia cells. The data set is described as above. The note with it: 37° C. Format: cell-based. The procedure: as §1
The test system of data set [6] is P388 mouse leukemia cells. The data set is described as above. Format: cell-based. Particulars: 37° C. The procedure:
as §1

Take `[NH2][Pt]([NH2])([Cl])[Cl]` [CDDP, cisplatin, reference compound]: the “ILS30 (dose giving a 30% life-prolonging effect over the control group)” value in data set [1] came to 1.5 mg/kg. For the same molecule, in data set [1], the “ILSmax (dose giving a highest life-prolonging effect)” value stood at 6.0 mg/kg. In addition, the “TR (cure ratio; ILSmax/ILS30)” value in data set [1] was found to be 4. Besides, the “CR (ratio of mice completely cured at ILSmax and showing no propagation of a tumor after 30 days to tested mice)” value in data set [1] is 3/6. This molecule came in with an LD50 in “Acute toxicity test” of 14.6 mg/kg. Further, the IC50 was 3.28 mg/L in data set [2]; 1.42 mg/L in data set [3]; 1.51 mg/L in data set [4]; 0.46 mg/L in data set [5]; 0.09 mg/L in data set [6].

As for “1:1 mixture of oxalate-(1R,2R)-diaminocyclooctane platinum (II) and oxalate-(1S,2S)-diaminocyclooctane platinum (II) [Example 1]”, the “T/C (life prolongation ratio)” value in data set [1] (0.3 mg/kg) was over 183%; in data set [1] (1.0 mg/kg), over 214%; in data set [1] (3.0 mg/kg) it was over 220%; in data set [1] (10.0 mg/kg), over 326%. For the same molecule, the “ratio of the number of surviving mice to the number of tested mice” value was 1/6 in data set [1] (0.3 mg/kg), 1/6 in data set [1] (1.0 mg/kg), 2/6 in data set [1] (3.0 mg/kg) and 6/6 in data set [1] (10.0 mg/kg). The “Average Survival Day Number” value in data set [1] (0.3 mg/kg) is over 16.8 days; in data set [1] (1.0 mg/kg), over 19.7 days; in data set [1] (3.0 mg/kg), over 20.3 days; in data set [1] (10.0 mg/kg), over 30.0 days. The “ILS30 (dose giving a 30% life-prolonging effect over the control group)” value in data set [1] came to 0.06 mg/kg. Also, in data set [1], the “ILSmax (dose giving a highest life-prolonging effect)” value amounted to 10.0 mg/kg. Also, the “TR (cure ratio; ILSmax/ILS30)” value in data set [1] was 167. The “CR (ratio of mice completely cured at ILSmax and showing no propagation of a tumor after 30 days to tested mice)” value in data set [1] is recorded as 6/6. For the same molecule, the IC50 amounted to 0.41 mg/L in data set [2]; 0.29 mg/L in data set [3]; 1.43 mg/L in data set [4]; 0.03 mg/L in data set [5]; 0.06 mg/L in data set [6].

As a reminder, the LD50 is the dose at which mortality reaches 50%. One may read the IC50 as the concentration that inhibits the measured activity by half. A higher IC50 goes with lower potency.
